The values that follow are results of earlier work, collected in patent US11246867B2, “Pharmaceutical composition comprising pimobendan” (Ceva Sante Animale, priority 2015, dated 2022).

For this data set the following is noted: pH 5.

With `COc1ccc(-c2nc3ccc(C4=NNC(=O)CC4C)cc3[nH]2)cc1` (stereo not shown) [pimobendan, 4,5-dihydro-6-[2-(4-methoxyphenyl)-1H-benzimidazol-5-yl]-5-methyl-3(2H)-pyridazone], the solubility in water entry is “about 1 mg/liter”.
